The record followed here is patent publication US20110082087A1, “COMPOUNDS FOR TREATING PAIN” (Edificio ICAT, priority 2008, published 2011).

For data set [1], the system named is rats (Wister, male). Briefly: Histological alterations in liver, kidney and spleen. Type of data set: in vivo, rat. The following applies: hematoxylin/eosin; 3.23 mg/100 g i.p. seven days. The protocol:
(§1) The toxicological studies were carried out with rats (Wister, male) injected i.p. once a day with 3.23 mg/100 g body mass during seven days.
For investigation of histological alterations in liver, kidney and spleen hematoxylin/eosin-stained sections of fixed tissue were used.

The nature of data set [2]: Plasma serum stability of analogues. The note with it: Human Serum; test concentration 400 uM; 1-hour incubation; read-out: Mean Parent Remaining (%). Type of data set: in vitro ADME. On the procedure: These analogues were tested for plasma serum stability, in comparison with KTP-NH2.
The next data set deals with c-fos. The data set can be described thus: Formalin-induced c-fos expression in spinal cord dorsal horn (immunohistochemistry). Type of data set: in vivo, rat. The note with it: formalin-treated rats.
In data set [3] the test system is rats. The data set can be described thus: Rota-rod test (motor ability). The note with it: 3.23 mg/100 g of body mass. Type of data set: in vivo, rat. The protocol: To evaluate the motor ability of animals after being injected with the drug (3.23 mg/100 g of body mass), the Rota-rod test was used. Briefly, the animal is placed on a wheel and run in balanced position; if balance is lost, the animal falls.
(In the rotarod test animals must keep their balance on a rotating rod.)

A further data set is described as follows: Plasma stability. Type of data set: in vitro ADME, human. The following applies: after 1 h incubation. The text has this: Drugs are exposed in plasma to enzymatic processes (proteinases, esterases), they can undergo intramolecular rearrangement or bind irreversibly (covalently) to proteins. Compounds which are not stable in plasma have inherent liability as drug candidates, as they are less capable to reach a sufficient concentration at their site of pharmacological activity.

Data set [4] has as its system rats (Wister, male). Briefly: Antioxidant capacity in plasma (ACW, ACL). Type of data set: in vivo, rat. The following applies: i.p. once a day 3.23 mg/100 g for seven days. The protocol: as §1
Metabolization of KTP-NH2 in the organism might lead to an increase in its metabolite products and to the subsequent production of reactive oxygen species (ROS). As increased ROS levels are potentially harmful, KTP-NH2 potential to induce changes in antioxidant capacities in the plasma of animals was explored. Total antioxidant capacity of lipid-soluble (ACL) and water-soluble (ACW) constituents were determined.

Data set [5] can be described thus: Differential quenching, depth of location in the membrane. The note with it: phenolic ring; differential quenching with 5-NS and 16-NS. Type of data set: physicochemical. The text has this:
Differential quenching experiments were used to estimate the depth of location of the phenolic ring of the peptides, based on a Brownian dynamics simulation (Fernandes M. X., Garcia de la Torre J., Castanho M. A. 2002. Joint determination by Brownian dynamics and fluorescence quenching of the in-depth location profile of biomolecules in membranes. Anal. Biochem. 307: 1-12.) This methodology allows to determine where the molecules are preferably inserted along the lipid bilayer. The peptides with the amide group show a greater depth of insertion, 4 Å—KTP-NH2 and 3 Å—Ibu-KTP-NH2, from the lipid/water interface. This is in agreement with KTP-NH2 having a higher affinity for lipids, as desired.

A short description of data set [6]: Cytotoxicity (LDH release and ATP). Type of data set: cell-based. The following applies: human hepatocytes; LDH and ATP determination; read-out: LC50 (the source's name). The protocol: Cytotoxicity was assessed with a cell-based assay using human hepatocytes. Cell death was assayed by quantifying plasma membrane damage or rupture through measurement of the release of lactate dehydrogenase (LDH) (Legrand, C. et al. 1992. Lactate dehydrogenase (LDH) activity of the cultured eukaryotic cells as marker of the number of dead cells in the medium. J. Biotechnol. 25: 231-243), a stable cytoplasmic enzyme present in most cells. Determination of cell viability was performed by quantifying ATP (Cree I. A and Andreotti P. E. 1997. Measurement of cytotoxicity by ATP-based luminescence assay in primary cell cultures and cell lines. Toxicology in vitro, 11: 553-556), a marker for cell viability because it is present in all metabolically active cells and the concentration declines very rapidly when the cells undergo necrosis or apoptosis.

Data set [7] relates to rats. Briefly: Formalin test (paw jerks). Type of data set: in vivo, rat. The following applies: acute and tonic-chronic phases; i.p. 10 min before 5% formalin s.c. The text has this: The formalin test was introduced as a model of tonic pain in 1977 (Dubuisson D., Dennis S. G. 1977. The formalin test: a quantitative study of the analgesic effect of morphine, meperidine and brain stem stimulation in rats and cats. Pain; 4:74-161). In rats, formalin generates an initial phase of activity (phase 1, acute), a quiescent interphase, and a second phase of activity (phase 2, tonic/chronic), and this is seen with spontaneous behaviors, firing of afferent neurons, and activity in dorsal horn neurons. Both active phases involve ongoing peripheral afferent neural activity; inflammation contributes to phase 2 activity and the interphase results from active inhibition. Within the spinal cord, formalin increases c-fos expression in neurons and causes activation of microglia, and these may contribute more prominently to longer term changes.
We performed the formalin test due to its validity as a model to study central sensitization events at the spinal level after peripheral inflammatory states. The standard two types of nociception were analyzed; the short-lasting nociception caused by a direct effect on nociceptors followed by a long-lasting nociception due to inflammation. KTP-NH2 was administered i.p. 10 min previous to formalin injection. […] The paw jerks were videotaped and measured both in the acute and in the tonic-chronic phases. […]

Data set [8] can be described thus: Metabolic stability in human liver microsomal preparation. The following applies: liver microsomes; 1-hour incubation with human liver microsomal preparation; read-out: compound remained. Type of data set: in vitro ADME. An excerpt:
Many compounds can never become a drug because they are rapidly metabolized in the liver. It is important to confirm that metabolic stability is adequate to the desired distribution of compound throughout the body.
(Microsomes from liver hold many membrane-bound enzymes, among them those of drug oxidation.)

A short description of data set [9]: Partition into lipid bilayer vesicles (fluorescence titration). Type of data set: physicochemical. The note with it: mammal-mimetic lipid bilayer vesicle; numerical treatment of fluorescence titration. The text has this: We performed biophysical studies using fluorescent methodologies in order to characterize the interaction of KTP-NH2 with liposomes representing human cell membranes (Santos N. C., Prieto M. and Castanho M. A. 2003. Quantifying molecular partition into model systems of biomembranes: an emphasis on optical spectroscopic methods. Biochim Biophys Acta 1612: 123-135.). A clear interaction of KTP-NH2 with the lipid bilayers was observed. […] When titrated with a mammal-mimetic lipid bilayer vesicle (circles), the fluorescence intensity of the phenolic moiety increases due to insertion in the apolar environment created by the lipids. The POPC system mimetizes the external layer of human cell membranes, whereas POPG lipidic mixture mimetizes the internal layer of human cell membranes.
In order to confirm that these plasma-stable KTP-NH2 derivatives maintained their lipophilicity, their potential interaction with human cell membranes was assessed. Again, we performed biophysical studies using fluorescent methodologies (Santos N. C., Prieto M. and Castanho M. A. 2003. Quantifying molecular partition into model systems of biomembranes: an emphasis on optical spectroscopic methods. Biochim Biophys Acta 1612: 123-135.).

`N=C(N)NCCC[C@H](NC(=O)[C@@H](N)Cc1ccc(O)cc1)C(N)=O` [KTP-NH2, L-Tyr-L-Arg-NH2]: in the data set with rats (Wister, male) [1], the “histological alterations in kidney and spleen” value was “no histological modifications”; the “histological alterations in liver” value was “no sign of hepatic necrosis”. Moreover, in data set [2], the remaining at 1 h, 400 uM was 14%. Besides, the “formalin-induced c-fos protein expression in dorsal horn” value in the data set with c-fos is recorded as “significantly decreased”. The “motor ability, loss of balance” value in the data set on rats [3] was “No loss of balance/equilibrium”. The “stability in human plasma” value in the data set “Plasma stability” was 14-21%. For the same compound, the “basal antioxidant capacity in plasma (ACL, ACW)” value in the data set on rats (Wister, male) [4] is reported as “does not induce significant modifications”. In addition, the “depth of insertion from the lipid/water interface” value in data set [5] amounted to 4 Å. In [6], the CC50 was > 125 µM. Also, in the data set with rats [7], the number of paw-jerks entry was “reduced significantly”. Further, the remaining at 1 h in [8] is 93%. Moreover, in data set [9], the “local concentration in the model membrane of mammals relative to surrounding bulk aqueous phase” value was “approx. 2500 fold”.
